A short description of this experiment: activity of peptide, test not specified.

Turning to “CYS-THR-THR-ASN-TYR-THR-CYS (CTTNYTC; printed: CYS-THR-THR-ASN-TYR-THR-CYS) [seven amino acid peptide]”, the outcome was active.

The values are drawn from EP0249390A2, “Synthetic peptides related to the HIV glycoprotein gp 120” (Pert, Candace B., priority 1986, dated 1987).
